Test results taken from patent US20240294498A1, “FACTOR XIIA INHIBITORS” (Lunac Therapeutics Ltd, priority 2021, published 2024).
pKi: −log10 of the molar value.

Experiments:
Type in all cases: biochemical
thrombin = target: T1, thrombin (Homo sapiens, UniProt P00734); test: Determination of selectivity: thrombin inhibition (chromogenic substrate GPR); details: fold selectivity for FXIIa over thrombin (human); category
T1 construct: FXa (5 nM) and thrombin (5 nM)
Description: (§1) The activities of the compounds of the invention have been determined in vitro using the following assays protocols for the screening of activity of FXIIa and other proteases. Each of these assays were performed in a purified system employing the use of chromogenic assays in microplate plate wells. Chromogenic peptide substrates mimicking natural protein substrates are attached via an amide bond to a chromogenic group. Paranitroaniline (pNA) is released from the peptide following catalyses by the proteolytic enzyme; the absorbance increases and can be monitored at 405 nm.
(§2) All compounds were dissolved in 100% (v/v) DMSO to a stock concentration of 10 mM, the highest concentration of compound used in each assay is 500 μM. The final concentrations of DMSO were 5% (v/v) in 50 mM Tris 137 mM NaCl pH 7.4. Where no test compound was added a final concentration of 5% DMSO was employed.
(§3) To determine selectivity of test compounds, these test compounds were assayed for inhibitory activity against other serine proteases including FXa and thrombin. Essentially compounds at increasing concentrations were incubated with each enzyme: FXa (5 nM) and thrombin (5 nM), for 10 mins at 37° C. followed by the appropriate chromogenic substrate, S2765 (Chromogenix) and GPR (Bachem) respectively in 50 mM Tris, 137 mM NaCl, pH 7.4. Substrates were used at a concentration equal to the appropriate experimentally derived KM. Kinetic readings at 405 nm were monitored every 12 secs for a total duration of 3 hours at 37° C. Gradients of initial rates were determined and employed to calculate IC50 values. Values of IC50 were converted to Ki values based on the formula:
(§4) Ki═IC50/(1+[Substrate]/Km)
(§5) Where [Substrate] denotes the concentration of substrate used in the assay and Km is the determined value of each enzyme with its own substrate.
The fold selectivity for FXIIa over thrombin for the compounds of the invention has been categorised based on the fold selectivity values, the categories being “+”, “++” and “+++”. The category “+” refers to fold selectivity values less than 10 (e.g. a fold selectivity value of less than 10 and greater than 1). The category “++” refers to a fold selectivity value of 10 to 100. The category “+++” refers to fold selectivity values greater than 100.

FXa = FXa (Homo sapiens, UniProt P00742); test: Determination of selectivity: FXa inhibition (chromogenic substrate S2765); details: fold selectivity for FXIIa over FXa (human); category
Description: as §1, §2, §3, §4, §5
The fold selectivity for FXIIa over FXa for the compounds of the invention has been categorised based on the fold selectivity values, the categories being “o”, “oo” and “ooo”. The category “o” refers to fold selectivity values less than 10 (e.g. a fold selectivity value of less than 10 and greater than 1). The category “oo” refers to a fold selectivity value of 10 to 100. The category “ooo” refers to fold selectivity values greater than 100.

FXIIa = target: T2, FXIIa (Homo sapiens, UniProt P00748); test: Determination of Factor XIIa inhibition (chromogenic substrate S-2302); details: human FXIIa alpha, Ki category
T2 construct: FXIIa alpha
T2 sequence (P00748 373-615 limits assumed): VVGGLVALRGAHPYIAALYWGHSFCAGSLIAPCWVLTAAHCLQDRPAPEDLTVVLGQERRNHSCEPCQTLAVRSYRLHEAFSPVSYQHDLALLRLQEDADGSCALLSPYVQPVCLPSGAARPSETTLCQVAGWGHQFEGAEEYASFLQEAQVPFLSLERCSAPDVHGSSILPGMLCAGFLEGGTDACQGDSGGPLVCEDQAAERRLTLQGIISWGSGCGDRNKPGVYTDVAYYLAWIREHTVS
T2 sequence (P00748 20-372 partner limits assumed): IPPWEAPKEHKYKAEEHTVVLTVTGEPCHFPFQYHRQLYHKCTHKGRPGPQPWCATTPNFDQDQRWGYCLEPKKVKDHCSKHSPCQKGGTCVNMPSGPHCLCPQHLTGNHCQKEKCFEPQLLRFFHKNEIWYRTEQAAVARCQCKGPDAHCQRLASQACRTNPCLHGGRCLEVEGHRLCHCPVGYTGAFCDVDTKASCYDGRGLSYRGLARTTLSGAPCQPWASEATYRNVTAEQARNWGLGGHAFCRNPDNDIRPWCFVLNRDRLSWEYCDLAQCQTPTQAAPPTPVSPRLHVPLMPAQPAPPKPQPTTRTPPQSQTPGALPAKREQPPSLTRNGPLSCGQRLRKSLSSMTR
Description: as §1, §2
Factor XIIa activity was measured using a chromogenic substrate S-2302 (Chromogenix). Various concentrations of compound were incubated with 10 nM of FXIIa and incubated at 37° C. for 10 minutes in 50 mM Tris, 137 mM NaCl, pH 7.4, prior to the addition of the chromogenic substrate S-2302 at a concentration equal the to the experimentally derived KM. Kinetic readings at 405 nm were monitored every 12 secs for a total duration of 3 hours at 37° C. Gradients of initial rates were determined and employed to calculate IC50 values.
The activity of the compounds of the invention has been categorised based on the Ki values, the categories being “†”, “*”, “**” and “***”. […] The category “**” refers to compounds with a Ki value of 0.2 μM to 0.8 μM.
as §4, §5

Chain of FXa (P00742 235-488 limits assumed): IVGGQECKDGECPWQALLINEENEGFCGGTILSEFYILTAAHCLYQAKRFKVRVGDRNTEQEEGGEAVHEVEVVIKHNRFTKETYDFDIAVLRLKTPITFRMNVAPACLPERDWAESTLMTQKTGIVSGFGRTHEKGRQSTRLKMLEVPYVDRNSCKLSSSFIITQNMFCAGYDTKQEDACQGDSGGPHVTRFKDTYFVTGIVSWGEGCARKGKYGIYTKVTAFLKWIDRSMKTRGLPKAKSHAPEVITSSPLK
Chain of FXa (P00742 41-179 partner limits assumed): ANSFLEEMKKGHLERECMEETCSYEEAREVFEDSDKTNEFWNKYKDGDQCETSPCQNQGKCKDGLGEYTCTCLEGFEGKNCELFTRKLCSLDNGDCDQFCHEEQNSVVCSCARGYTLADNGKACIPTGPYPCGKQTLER

Structure (SMILES)	FXa (human)/FXIIa alpha (human) (FXa)	pKi (FXIIa)	Thrombin (human)/FXIIa alpha (human) (thrombin)
CCN1CCC[C@H](C(=O)N2CCCC2)[C@@H]1C(=O)N1C[C@H](Cc2ccc(C)cc2)C[C@H]1C(=O)NCc1ccc2c(cnn2C)c1 [Example M05772, (2S,4R)-1-((2R,3S)-1-ethyl-3-(pyrrolidine-1-carbonyl)piperidine-2-carbonyl)-N-((1-methyl-1H-indazol-5-yl)methyl)-4-(4-methylbenzyl)pyrrolidine-2-carboxamide]	∘∘∘	6.10 to 6.70	+++ (fold selectivity values greater than 100)
Cc1ccc(C[C@@H]2C[C@@H](C(=O)NCc3ccc4c(cnn4C)c3)N(C(=O)[C@@H]3NCCC[C@@H]3C(=O)N3CCCC34CC4)C2)cc1 [Example M05773]	∘∘∘	6.10 to 6.70	++ (a fold selectivity value of 10 to 100)
Cc1ccc(C[C@@H]2C[C@@H](C(=O)NCc3ccc4c(cnn4C)c3)N(C(=O)[C@@H]3NCCC[C@@H]3C(=O)N3CCC4(CC3)CC4)C2)cc1 [Example M05775, (2S,4R)-1-((2R,3S)-3-(6-azaspiro[2.5]octane-6-carbonyl)piperidine-2-carbonyl)-N-((1-methyl-1H-indazol-5-yl)methyl)-4-(4-methylbenzyl)pyrrolidine-2-carboxamide]	∘∘∘	5.30 to 6.10	++ (a fold selectivity value of 10 to 100)
Cc1ccc(C[C@@H]2C[C@@H](C(=O)NCc3ccc4c(cnn4C)c3)N(C(=O)[C@@H]3NCCC[C@@H]3C(=O)N3CC[C@H](F)C3)C2)cc1 [Example M05777, (2S,4R)-1-((2R,3S)-3-((S)-3-fluoropyrrolidine-1-carbonyl)piperidine-2-carbonyl)-N-((1-methyl-1H-indazol-5-yl)methyl)-4-(4-methylbenzyl)pyrrolidine-2-carboxamide]	∘∘∘	6.10 to 6.70	+++ (fold selectivity values greater than 100)
Cc1ccc(C[C@@H]2C[C@@H](C(=O)NCc3ccc4c(cnn4C)c3)N(C(=O)[C@@H]3NCCC[C@@H]3C(=O)N3CC[C@@H](F)C3)C2)cc1 [Example M05785, (2S,4R)-1-((2R,3S)-3-((R)-3-fluoropyrrolidine-1-carbonyl)piperidine-2-carbonyl)-N-((1-methyl-1H-indazol-5-yl)methyl)-4-(4-methylbenzyl)pyrrolidine-2-carboxamide]	∘∘∘	> 6.70	+++ (fold selectivity values greater than 100)
Cc1ccc(C[C@@H]2C[C@@H](C(=O)NCc3ccc4c(cnn4C)c3)N(C(=O)[C@@H]3NCCC[C@@H]3C(=O)N3CCC(F)(F)C3)C2)cc1 [Example M05787, (2S,4R)-1-((2R,3S)-3-(3,3-difluoropyrrolidine-1-carbonyl)piperidine-2-carbonyl)-N-((1-methyl-1H-indazol-5-yl)methyl)-4-(4-methylbenzyl)pyrrolidine-2-carboxamide]	∘∘∘	6.10 to 6.70	+++ (fold selectivity values greater than 100)
Cc1ccc(O[C@@H]2C[C@@H](C(=O)NCc3ccc4c(cnn4C)c3)N(C(=O)[C@@H]3NCCC[C@@H]3C(=O)N3CCCC3)C2)cc1 [Example M05798, (2S,4R)-N-[(1-methylindazol-5-yl)methyl]-4-(4-methylphenoxy)-1-[(2R,3S)-3-(pyrrolidine-1-carbonyl)piperidine-2-carbonyl]pyrrolidine-2-carboxamide]	∘∘∘	5.30 to 6.10	+++ (fold selectivity values greater than 100)
Cc1ccc(C[C@@H]2C[C@@H](C(=O)NCc3ccc4c(cnn4C)c3)N(C(=O)[C@@H]3NCCC[C@@H]3C(=O)N3C4CCC3CC4)C2)cc1 [Example M05804, (2S,4R)-1-((2R,3S)-3-(7-azabicyclo[2.2.1]heptane-7-carbonyl)piperidine-2-carbonyl)-N-((1-methyl-1H-indazol-5-yl)methyl)-4-(4-methylbenzyl)pyrrolidine-2-carboxamide]	∘∘∘	6.10 to 6.70	+++ (fold selectivity values greater than 100)

Second part, led by results:

FXa (human)/FXIIa alpha (human) (FXa)	pKi (FXIIa)	Structure (SMILES)	Thrombin (human)/FXIIa alpha (human) (thrombin)
∘∘∘	6.10 to 6.70	Cc1ccc(C[C@@H]2C[C@@H](C(=O)NCc3ccc4c(cnn4C(F)F)c3)N(C(=O)[C@@H]3NCCC[C@@H]3C(=O)N3CCCC3)C2)cc1 [Example M05778, (2S,4R)-N-((1-(difluoromethyl)-1H-indazol-5-yl)methyl)-4-(4-methylbenzyl)-1-((2R,3S)-3-(pyrrolidine-1-carbonyl)piperidine-2-carbonyl)pyrrolidine-2-carboxamide]	+++ (fold selectivity values greater than 100)
∘∘∘	> 6.70	Cn1ncc2cc(CNC(=O)[C@@H]3C[C@@H](Cc4ccc(C(F)(F)F)cc4)CN3C(=O)[C@@H]3NCCC[C@@H]3C(=O)N3CCCC3)ccc21 [Example M05788, (2S,4R)-N-((1-methyl-1H-indazol-5-yl)methyl)-1-((2R,3S)-3-(pyrrolidine-1-carbonyl)piperidine-2-carbonyl)-4-(4-(trifluoromethyl)benzyl)pyrrolidine-2-carboxamide]	+++ (fold selectivity values greater than 100)
∘∘∘	> 6.70	COc1cc(CNC(=O)[C@@H]2C[C@@H](Cc3ccc(C)cc3)CN2C(=O)[C@@H]2NCCC[C@@H]2C(=O)N2CCCC2)cc2cnn(C)c12 [Example M05799, (2S,4R)-N-((7-methoxy-1-methyl-1H-indazol-5-yl)methyl)-4-(4-methylbenzyl)-1-((2R,3S)-3-(pyrrolidine-1-carbonyl)piperidine-2-carbonyl)pyrrolidine-2-carboxamide]	++ (a fold selectivity value of 10 to 100)
∘∘∘	> 6.70	Cc1ccc(C[C@@H]2C[C@@H](C(=O)NCc3ccc4c(c3)c(F)nn4C)N(C(=O)[C@@H]3NCCC[C@@H]3C(=O)N3CCCC3)C2)cc1 [Example M05806, (2S,4R)-N-((3-fluoro-1-methyl-1H-indazol-5-yl)methyl)-4-(4-methylbenzyl)-1-((2R,3S)-3-(pyrrolidine-1-carbonyl)piperidine-2-carbonyl)pyrrolidine-2-carboxamide]	+++ (fold selectivity values greater than 100)
